Test results: patent US9662329B2, “Use of survivin antagonists in polyomavirus-related disease” (University of Pittsburgh—Of the Commonwealth System of …, priority 2012, dated 2017)
Counter-ions that a name gives are not always drawn. Like-named read-outs stand apart in the source and are kept apart here.

Tests used:
Format in all cases: cell-based, human
MKL-1 = test: Cell Titer Glo dose-response study
Source text: (§1) Seven Merkel cell carcinoma cell lines: MKL-1, MKL-2, MS-1, UISO, MCC13, MCC26 and WaGa (kind gift of Jurgen Becker (Houben et al., Merkel cell polyomavirus-infected Merkel cell carcinoma cells require expression of viral T antigens. J Virol 84, 7064 (July, 2010); Ronan et al., Merkel cell carcinoma: in vitro and in vivo characteristics of a new cell line. J Am Acad Dermatol 29, 715 (November, 1993); Rosen et al., Establishment and characterization of a neuroendocrine skin carcinoma cell line. Lab Invest 56, 302 (March, 1987)); NCI-H69 small cell lung cancer cell line (ATCC); 293 human embryonic kidney cells (ATCC); U2OS osteosarcoma cell line (kind gift of Ole Gjoerup); BJhTERT immortalized foreskin fibroblast cell line (kind gift of Ole Gjoerup); and BJ primary foreskin fibroblasts (ATCC) were used to screen and evaluate the small molecules examined in this study (Houben et al., J Virol 84, 7064 (July, 2010); Ronan et al., J Am Acad Dermatol 29, 715 (November, 1993); Rosen et al., Lab Invest 56, 302 (March, 1987)). The Merkel cell lines and NCI-H69 were grown in RPMI 1640 supplemented with 10% fetal calf serum, penicillin and streptomycin at 37° C. in humidified air containing 5% CO2. The remaining cell lines were grown in DMEM supplemented with 10% fetal calf serum.
(§2) For EC50 measurements, dose-response curves were established for 17 drugs obtained individually in bulk stocks. Iodoacetamide (I1149), sanguarine chloride (S5890), NSC95397 (N1786), chelerythrine chloride (C2932), calmidazolium chloride (C3930), tetraethylthiuram disulfide (T1132), bay 11-7085 (B5681), quinacrine dihydro chloride (Q3251), ellipticine (E3380), amsacrine hydrochloride (A9809) and nutlin-3 (N6287) were purchased from Sigma Aldrich, USA.
(§3) Compounds that met the selection criteria <10% cell survival were purchased or obtained in bulk from NCI/NIH Developmental Therapeutics Program. Serial drug dilutions from 10^−4 M to 10^−9 M were used on MCC and non-MCC cell lines. Cells were seeded into 384-well plates at 6000 cells in 50 μl of medium per well. After 24 hours, 25 μl of 3× drugs were added at increasing concentration to each well. Cell viability was then measured using Cell Titer Glo (Promega) kit following manufacturer's instructions as described previously. Each drug concentration was tested in triplicate for each cell line and experiments were repeated twice. EC50 doses for the drugs were calculated using a four parameter logistic equation (GraphPad Prism).

MKL-2 = test: Cell Titer Glo dose-response study; conditions: read-out: EC50 concentrations for MCC cell lines, MKL-2
Source text: as §1, §2, §3

MS-1 = test: Cell Titer Glo dose-response study
Source text: as §1, §2, §3

UISO = test: Cell Titer Glo dose-response study; conditions: read-out: EC50 concentrations for MCC cell lines, UISO
Source text: as §1, §2, §3

WaGa = test: Cell Titer Glo dose-response study; conditions: read-out: EC50 concentrations for MCC cell lines, WaGa
Source text: as §1, §2, §3

MKL-1 cells [1] = test: Cell cycle analysis (PI and BrdU staining); conditions: 12 h, YM155 100 nM, camptothecin 1 μM
Experimental: MKL-1 cells were treated with Accutase (Millipore) to break clumps and then resuspended in fresh medium containing drug and treated for 12 hours. Three hours before harvest 10 μM Bromodeoxyuridine (BrdU) was added. Cells were then harvested and fixed in chilled 70% ethanol and left overnight. The next day cells were washed, resuspended in 200 μl of 2M HCl/Triton X (1%) and incubated for 30 mins at room temperature. Cells were then centrifuged at 2000 rpm for 10 mins and neutralized in 200 μl of 0.1M sodium tetraborate, pH 8.5 solution. Cells were then washed, suspended in 20 μl of PBS containing 0.5% tween20, 1% donkey serum and 2ul of anti-BrdU antibody (1:10 diution, BD Biosciences) and incubated overnight at 4° C. Cells were then washed and incubated with secondary antibody-anti mouse Alexa488 (1:1000) for 1 hour at room temperature. Cells were finally washed, suspended in PBS containing 100 μg/ml of RNase A, 50 μg/ml of PI (propidium iodide) and 0.05% Triton X and incubated for 30 mins at 37° C. in the dark. The cells were then subjected to FACS using the accuri C6 flow cytometer (UPCI shared resources).

MKL-1 cells [2] = test: MKL-1 cytotoxicity screen (Cell Titer Glo); conditions: screened at 10^-5 M; 48 hours; cut-off <10% cell survival
Source text: A total of 1,360 compounds were used in the initial screening survey: 1,280 compounds from LOPAC1280 library (Sigma Aldrich, accessed through University of Pittsburgh Drug Discovery Institute), 89 compounds from NCI's Approved Oncology Drug Set II (from The NCI/DTP Open Chemical Repository, http://dtp.cancer.gov), 6 LT ATPase inhibitors (MAL2-11B, MAL3-101, MAL2-51, DMT3084, bithionol and hexachlorophene (Wright et al., Inhibition of Simian Virus 40 replication by targeting the molecular chaperone function and ATPase activity of T antigen. Virus Res 141, 71 (April, 2009); Seguin et al., High-Throughput Screening Identifies a Bisphenol Inhibitor of SV40 Large T Antigen ATPase Activity. […] NCI Approved Oncology Drug Set II, SV40 LT ATPase inhibitors and MDM2 inhibitors were reconstituted as recommended by supplier. […] Reconstituted compounds were diluted in cell culture media to obtain a 100× stock concentration prior to addition to cells. Doxorubicin (positive control) was obtained from Sigma-Aldrich and DMSO (negative control) was obtained from Fisher Bioreagents.
MKL-1 cells were seeded at a density of 6000 cells in 50 μl of medium per well (120 cells/μl) in opaque polypropylene 384-well microplates (#781080, Greiner Bio-One, Germany). Cells were incubated at 37° C. in humidified air containing 5% CO2 for 24 hours. Thereafter, 25 μl of medium containing 3× drug per well was added to the plates, which were incubated for an additional 48 hours. Cell viability was measured using Cell Titer Glo (Promega) following manufacturer's instructions.
The LOPAC1280 library was screened at a final concentration of 10 μM for each compound and the NCI library was screened at a final concentration of 1 μM for each compound.
Cell Titer Glo assays were performed in duplicate using 384 well plates, each containing 24 wells with 1% DMSO (negative control) and 32 wells with 200 μM doxorubicin (positive control). Screening results were evaluated on the basis of percentage cell survival normalized to the DMSO control (100%). Positive candidates were identified using a cut-off value of <10% cell survival.

[3] = Homo sapiens, MKL-1 (MCV-positive), Cell Titer Glo, read-out: EC50 concentrations for MCC cell lines, MKL-1
[4] = Homo sapiens, MKL-2 (MCV-positive), Cell Titer Glo
[5] = Homo sapiens, MS-1 (MCV-positive), Cell Titer Glo, read-out: EC50 concentrations for MCC cell lines, MS-1
[6] = Homo sapiens, UISO (MCV-negative), Cell Titer Glo
[7] = Homo sapiens, WaGa (MCV-positive), Cell Titer Glo
[8] = Homo sapiens, MKL-1, read-out: EC50 concentrations for MCC cell lines, MKL-1
[9] = Homo sapiens, MS-1, read-out: EC50 concentrations for MCC cell lines, MS-1
[10] = MKL-1 (MCV-positive), Cell Titer Glo, read-out: EC50 concentrations for MCC cell lines, MKL-1
[11] = MKL-2 (MCV-positive), Cell Titer Glo
[12] = MS-1 (MCV-positive), Cell Titer Glo, read-out: EC50 concentrations for MCC cell lines, MS-1
[13] = UISO (MCV-negative), Cell Titer Glo
[14] = WaGa (MCV-positive), Cell Titer Glo

| SMILES | EC50 (MKL-1; [3]) [nM] | EC50 (MKL-2; [4]) [nM] | EC50 (MS-1; [5]) [nM] | EC50 (UISO; [6]) [nM] | EC50 (WaGa; [7]) [nM] | other results |
| --- | --- | --- | --- | --- | --- | --- |
| COc1cc(NS(C)(=O)=O)ccc1Nc1c2ccccc2nc2ccccc12 [Amsacrine hydrochloride] | 110 | 3000 | 7500 | 2600 | 250 |  |
| CCN(CC)CCCC(C)Nc1c2ccc(Cl)cc2nc2ccc(OC)cc12 (stereo not drawn) [Quinacrine dihydrochloride] |  |  |  |  |  | EC50 (MKL-1; [8]): 5100 nM; EC50 (MKL-2; Homo sapiens): 4600 nM; EC50 (MS-1; [9]): 4900 nM; EC50 (UISO; Homo sapiens): 7100 nM; EC50 (WaGa; Homo sapiens): 5200 nM |
| CC[C@@]1(O)C(=O)OCc2c1cc1n(c2=O)Cc2cc3ccccc3nc2-1 [camptothecin] |  |  |  |  |  | BrdU incorporation (MKL-1 cells [1]): accumulation of BrdU-positive cells in G1 and G2 |
| CC[C@@]1(O)C(=O)OCc2c1cc1n(c2=O)Cc2cc3c(CN(C)C)c(O)ccc3nc2-1 [Topotecan] | 28 | 430 | 620 | 170 | 15 |  |
| CCC(=O)N1CCN(c2ccc(-n3c(=O)ccc4cnc5ccc(-c6cnc7ccccc7c6)cc5c43)cc2C(F)(F)F)CC1 [Torin1] |  |  |  |  |  | activity in screen (>90% inhibition of MKL-1 cell growth) (MKL-1 cells [2]): not active |
| COc1cccc2c1C(=O)c1c(O)c3c(c(O)c1C2=O)C[C@@](O)(C(C)=O)C[C@@H]3O[C@H]1C[C@H](N)[C@H](O)[C@H](C)O1 [Daunorubicin] |  |  |  |  |  | EC50 (MKL-1; [8]): 15 nM; EC50 (MKL-2; Homo sapiens): 86 nM; EC50 (MS-1; [9]): 150 nM; EC50 (UISO; Homo sapiens): 1400 nM; EC50 (WaGa; Homo sapiens): 18 nM |
| NC(=O)CI [Iodoacetamide] |  |  |  |  |  | EC50 (MKL-1; [8]): 290 nM; EC50 (MKL-2; Homo sapiens): 300 nM; EC50 (MS-1; [9]): 640 nM; EC50 (UISO; Homo sapiens): 2500 nM; EC50 (WaGa; Homo sapiens): 370 nM |
| CCCCC(=O)OCC(=O)[C@]1(O)Cc2c(O)c3c(c(O)c2[C@@H](O[C@H]2C[C@H](NC(=O)C(F)(F)F)[C@H](O)[C@H](C)O2)C1)C(=O)c1c(OC)cccc1C3=O [Valrubicin] | 230 | 2800 | 9900 | 4000 | 320 |  |
| Cc1c2ccncc2c(C)c2c1[nH]c1ccccc12 [Ellipticine] | 3200 | 6500 | 6900 | 1100 | 3000 |  |
| CO[C@H]1C[C@@H]2CC[C@@H](C)[C@@](O)(O2)C(=O)C(=O)N2CCCC[C@H]2C(=O)O[C@H]([C@H](C)C[C@@H]2CC[C@@H](O)[C@H](OC)C2)CC(=O)[C@H](C)/C=C(\C)[C@@H](O)[C@@H](OC)C(=O)[C@H](C)C[C@H](C)/C=C/C=C/C=C/1C [rapamycin] |  |  |  |  |  | activity in screen (>90% inhibition of MKL-1 cell growth) (MKL-1 cells [2]): not active |
| Nc1nc2c(ncn2COCCO)c(=O)[nH]1 [acyclovir] |  |  |  |  |  | activity in screen (>90% inhibition of MKL-1 cell growth) (MKL-1 cells [2]): not active |
| CCN(CC)C(=S)SSC(=S)N(CC)CC [Tetraethylthiuram disulfide] | 490 | 190 | 6300 | 13000 | 1100 |  |
| CO[C@H]1C[C@@H]2CC[C@@H](C)[C@@](O)(O2)C(=O)C(=O)N2CCCC[C@H]2C(=O)O[C@H]([C@H](C)C[C@@H]2CC[C@@H](OCCO)[C@H](OC)C2)CC(=O)[C@H](C)/C=C(\C)[C@@H](O)[C@@H](OC)C(=O)[C@H](C)C[C@H](C)/C=C/C=C/C=C/1C [everolimus] |  |  |  |  |  | activity in screen (>90% inhibition of MKL-1 cell growth) (MKL-1 cells [2]): not active |
| O=C1c2c(O)ccc(O)c2C(=O)c2c(NCCNCCO)ccc(NCCNCCO)c21 [Mitoxantrone] | 6 | 1300 | 1600 | 970 | 14 |  |
| O=C1C(SCCO)=C(SCCO)C(=O)c2ccccc21 [NSC 95397] |  |  |  |  |  | EC50 (MKL-1; [10]): 1200 nM; EC50 (MKL-2; [11]): 1500 nM; EC50 (MS-1; [12]): 1800 nM; EC50 (UISO; [13]): 2800 nM; EC50 (WaGa; [14]): 730 nM |
| C[n+]1cc2c3c(ccc2c2ccc4cc5c(cc4c21)OCO5)OCO3 [Sanguinarine chloride] |  |  |  |  |  | EC50 (MKL-1; [8]): 5300 nM; EC50 (MKL-2; Homo sapiens): 8400 nM; EC50 (MS-1; [9]): 4900 nM; EC50 (UISO; Homo sapiens): 6500 nM; EC50 (WaGa; Homo sapiens): 2500 nM |
| NC(=O)c1ncn([C@@H]2O[C@H](CO)[C@@H](O)[C@H]2O)n1 [ribavirin] |  |  |  |  |  | activity in screen (>90% inhibition of MKL-1 cell growth) (MKL-1 cells [2]): not active |
| COc1ccc2c(c[n+](C)c3c4cc5c(cc4ccc23)OCO5)c1OC [Chelerythrine chloride] | 600 | 650 | 520 | 3700 | 700 |  |
| Clc1ccc(C(c2ccc(Cl)cc2)n2cc[n+](CC(OCc3ccc(Cl)cc3Cl)c3ccc(Cl)cc3Cl)c2)cc1 (stereo not drawn) [Calmidazolium chloride] | 2200 | 1700 | 2100 | 2000 | 2100 |  |
| COc1cc([C@@H]2c3cc4c(cc3[C@@H](O[C@@H]3O[C@@H]5CO[C@@H](c6cccs6)O[C@H]5[C@H](O)[C@H]3O)[C@H]3COC(=O)[C@H]23)OCO4)cc(OC)c1O [Teniposide] | 10 | 2800 | 3000 | 7300 | 26 |  |
| CC(C)(C)c1ccc(S(=O)(=O)/C=C/C#N)cc1 [Bay 11-7085] |  |  |  |  |  | EC50 (MKL-1; [10]): 1400 nM; EC50 (MKL-2; [11]): 1700 nM; EC50 (MS-1; [12]): 2700 nM; EC50 (UISO; [13]): 4500 nM; EC50 (WaGa; [14]): 1200 nM |
| COc1ccc(C2=N[C@@H](c3ccc(Cl)cc3)[C@@H](c3ccc(Cl)cc3)N2C(=O)N2CCNC(=O)C2)c(OC(C)C)c1 [nutlin-3] |  |  |  |  |  | activity in screen (>90% inhibition of MKL-1 cell growth) (MKL-1 cells [2]): not active |
| COc1cccc2c1C(=O)c1c(O)c3c(c(O)c1C2=O)C[C@@](O)(C(=O)CO)C[C@@H]3O[C@H]1C[C@H](N)[C@H](O)[C@H](C)O1 [Doxorubicin] | 210 | 22 | 370 | 250 | 22 |  |
